The molecules below were run against T1, active p38 alpha enzyme (Upstate Biotechnology) (Homo sapiens, UniProt Q16539) (assay: p38α biochemical assay (ATP turnover, luminescent detection, Cambrex PKlight)). Conditions: p38α biochemical assay, Table 1 Biological Activity.
T1 construct: purchased Upstate Biotechnology
Outline: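 Luminescent PKlight readout of total ATP consumption follows a 2 h, 30C kinase reaction. Enzyme and MapkapK2 substrate run with 1.4 uM ATP (final) in buffer containing Mg2+, Ca2+, chelators, glycerol, reducing agent and BSA; test compounds added by pintool from DMSO.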

T1 sequence (Q16539 whole entry): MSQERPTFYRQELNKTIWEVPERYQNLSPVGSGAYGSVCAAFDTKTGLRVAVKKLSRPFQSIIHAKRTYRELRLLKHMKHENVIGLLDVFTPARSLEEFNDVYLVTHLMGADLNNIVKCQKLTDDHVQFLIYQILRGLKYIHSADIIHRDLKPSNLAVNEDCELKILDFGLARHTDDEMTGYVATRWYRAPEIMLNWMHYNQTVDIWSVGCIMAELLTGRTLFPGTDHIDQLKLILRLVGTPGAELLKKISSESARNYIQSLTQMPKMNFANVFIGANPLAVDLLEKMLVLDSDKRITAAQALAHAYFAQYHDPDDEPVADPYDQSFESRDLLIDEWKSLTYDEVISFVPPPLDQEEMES

SMILES	IC50 [µM]
CC(C)NC(=O)c1csc(-c2oc(CN3CCN(C(=O)c4ccc(Cl)cc4O)CC3)nc2-c2ccc(F)cc2)n1 [Example 432]	≤ 1
CC(C)NC(=O)c1csc(-c2c(-c3ccc(F)cc3)noc2CNC(=O)c2cccc(C#N)c2)n1 [Example 605]	> 1
Cc1nc(-c2ccc(F)cc2)c(-c2nc(C(=O)NCC3CC3)cs2)s1 [Example 51, 4′-(4-Fluoro-phenyl)-2′-methyl-|2,5′|bithiazolyl-4-carboxylic acid cyclopropylmethyl-amide]	≤ 1
CC(C)NC(=O)c1csc(-c2oc(CNC(=O)C3CN(C(=O)OC(C)(C)C)CCN3)nc2-c2ccc(F)cc2)n1 (centres unmarked) [Example 314]	≤ 1
CC(=O)NCC(=O)N1CCN(Cc2nc(-c3ccc(F)cc3)c(-c3nc(C(=O)NC(C)C)cs3)o2)CC1 [Example 347]	> 1
CC(C)NC(=O)c1csc(-c2oc(CNC(=O)CCc3nc4ccccc4[nH]3)nc2-c2ccc(F)cc2)n1 [Example 250]	≤ 1
CC(C)NC(=O)c1csc(-c2oc(CNC(=O)CC3Cc4ccccc4C3)nc2-c2ccc(F)cc2)n1 [Example 203]	> 1
CC(C)NC(=O)c1csc(-c2oc(CNC(=O)c3cc(Cl)ccn3)nc2-c2ccc(F)cc2)n1 [Example 155]	> 1
CC(C)NC(=O)c1csc(-c2oc(CNC(=O)c3ccc(Cl)nc3)nc2-c2ccc(F)cc2)n1 [Example 152]	≤ 1
COc1ccc(OC)c(C(=O)N2CCN(Cc3nc(-c4ccc(F)cc4)c(-c4nc(C(=O)NC(C)C)cs4)o3)CC2)c1 [Example 461]	> 1
COc1cc(OC)c(C(=O)NCc2nc(-c3ccc(F)cc3)c(-c3nc(C(=O)NC(C)C)cs3)o2)cc1OC [Example 284]	> 1
CC(C)NC(=O)c1csc(-c2c(-c3ccc(F)cc3)noc2CNC(=O)/C=C/c2ccccc2F)n1 [Example 653]	≤ 1
CC(C)NC(=O)c1csc(-c2c(-c3ccc(F)cc3)ncn2C2CCN(C(=O)OC(C)(C)C)CC2)n1 [Example 90, 4-|4-(4-Fluoro-phenyl)-5-(4-isopropylcarbamoyl-thiazol-2-yl)-imidazol-1-yl|-piperidine-1-carboxylic acid tert-butyl ester]	> 1
CCCc1ccc(C(=O)N2CCN(Cc3nc(-c4ccc(F)cc4)c(-c4nc(C(=O)NC(C)C)cs4)o3)CC2)cc1 [Example 413]	> 1
Cc1ccc(F)cc1C(=O)N1CCN(Cc2nc(-c3ccc(F)cc3)c(-c3nc(C(=O)NC(C)C)cs3)o2)CC1 [Example 387]	> 1
CC(C)NC(=O)c1csc(-c2oc(CN3CCN(C(=O)CC#N)CC3)nc2-c2ccc(F)cc2)n1 [Example 337]	≤ 1
Cc1cccc(C(=O)N2CCN(Cc3nc(-c4ccc(F)cc4)c(-c4nc(C(=O)NC(C)C)cs4)o3)CC2)c1 [Example 358]	> 1
COc1ccc2cc(C(C)C(=O)NCc3onc(-c4ccc(F)cc4)c3-c3nc(C(=O)NC(C)C)cs3)ccc2c1 (centres unmarked) [Example 788]	> 1
CC(C)NC(=O)c1csc(-c2oc(CNC(=O)C(C)c3ccc(O)cc3)nc2-c2ccc(F)cc2)n1 (centres unmarked) [Example 183]	≤ 1
CC(C)NC(=O)c1csc(-c2oc(CNC(=O)c3cc(F)c(F)c(O)c3F)nc2-c2ccc(F)cc2)n1 [Example 254]	> 1
CC(C)NC(=O)c1csc(-c2oc(CN3CCN(C(=O)C(Cc4ccccn4)NC(=O)OC(C)(C)C)CC3)nc2-c2ccc(F)cc2)n1 (centres unmarked) [Example 569]	> 1
CC(C)NC(=O)c1csc(-c2oc(CN3CCN(C(=O)c4c(Cl)cc(Cl)cc4Cl)CC3)nc2-c2ccc(F)cc2)n1 [Example 543]	> 1
Cc1ccccc1CCC(=O)N1CCN(Cc2nc(-c3ccc(F)cc3)c(-c3nc(C(=O)NC(C)C)cs3)o2)CC1 [Example 409]	≤ 1
CC(C)NC(=O)c1csc(-c2c(-c3ccc(F)cc3)noc2CNC(=O)c2ccc(-c3ccc(O)cc3)cc2)n1 [Example 766]	> 1
CC(=O)c1ccc(C(=O)NCc2onc(-c3ccc(F)cc3)c2-c2nc(C(=O)NC(C)C)cs2)cc1 [Example 642]	> 1

Same assay, conditions: p38α kinase; Table 1 Biological Activity

SMILES	IC50 [µM]
CC(C)NC(=O)c1csc(-c2oc(CNc3cc(C(F)(F)F)ccc3C(F)(F)F)nc2-c2ccc(F)cc2)n1 [Example 1372]	> 1
CC(C)NC(=O)c1csc(-c2oc(CN3CCN(c4ccc(C(F)(F)F)cn4)CC3)nc2-c2ccc(F)cc2)n1 [Example 1300]	> 1
Cc1nc(-c2ccc(F)cc2)c(-c2nc(C(=O)Nc3ccc4c(c3)OCO4)cs2)s1 [Example 1987]	≤ 1
COc1ccc(NC(=O)c2csc(-c3sc(C)nc3-c3ccc(F)cc3)n2)cc1OC [Example 1702]	≤ 1
CC(C)NC(=O)c1csc(-c2c(-c3ccc(F)cc3)noc2CNc2ccc(F)cc2C(F)(F)F)n1 [Example 1688]	> 1
CCC(C)NC(=O)c1csc(-c2sc(C)nc2-c2ccc(F)cc2)n1 (centres unmarked) [Example 1716]	> 1
Cc1nc(-c2ccc(F)cc2)c(-c2nc(C(=O)NCC(C)c3ccccc3)cs2)s1 (centres unmarked) [Example 1772]	≤ 1
Cc1nc(-c2ccc(F)cc2)c(-c2nc(C(=O)NCc3ccccc3C)cs2)s1 [Example 1755]	≤ 1
Cc1nc(-c2ccc(F)cc2)c(-c2nc(C(=O)N3CCN(c4ccc([N+](=O)[O-])cc4)CC3)cs2)s1 [Example 1933]	> 1
CC(C)NC(=O)c1csc(-c2oc(CNc3ccc4c(c3)OCO4)nc2-c2ccc(F)cc2)n1 [Example 1339]	> 1
CC(C)NC(=O)c1csc(-c2c(-c3ccc(F)cc3)n[nH]c2C2CCN(C(=O)c3ccc4ncccc4c3)CC2)n1 [Example 911]	> 1
CC(C)NC(=O)c1csc(-c2oc(CN3CCC(NC(=O)OC(C)(C)C)C3)nc2-c2ccc(F)cc2)n1 (centres unmarked) [Example 1259]	> 1
CCCCc1ccc(C(=O)N2CCC(c3[nH]nc(-c4ccc(F)cc4)c3-c3nc(C(=O)NC(C)C)cs3)CC2)cc1 [Example 922]	> 1
O=C(NCC1CCCCC1)c1csc(-c2c(-c3ccc(F)cc3)n[nH]c2C2CCNCC2)n1 [Example 2067]	> 1
CC(C)NC(=O)c1csc(-c2oc(CN3CCN(C(=O)OC(C)(C)C)C[C@H]3CO)nc2-c2ccc(F)cc2)n1 [Example 1292]	> 1
CC(C)NC(=O)c1csc(-c2c(-c3ccc(F)cc3)noc2CN2CCN(c3ccccn3)CC2)n1 [Example 1568]	> 1
CC(C)NC(=O)c1csc(-c2c(-c3ccc(F)cc3)n[nH]c2C2CCN(C(=O)c3cc(F)cc(F)c3)CC2)n1 [Example 874]	> 1
Cc1ccc(CCNC(=O)c2csc(-c3c(-c4ccc(F)cc4)n[nH]c3C3CCNCC3)n2)cc1 [Example 2090]	> 1
Cc1ccc([C@H](C)NCc2nc(-c3ccc(F)cc3)c(-c3nc(C(=O)NC(C)C)cs3)o2)cc1 [Example 1115]	> 1
COc1ccncc1NCc1onc(-c2ccc(F)cc2)c1-c1nc(C(=O)NC(C)C)cs1 [Example 1650]	> 1
CCC(C)NCc1onc(-c2ccc(F)cc2)c1-c1nc(C(=O)NC(C)C)cs1 (centres unmarked) [Example 1393]	> 1
Cc1cccnc1NCc1nc(-c2ccc(F)cc2)c(-c2nc(C(=O)NC(C)C)cs2)o1 [Example 1314]	> 1

SMILES	IC50 [µM]
Cc1ccc(S(=O)(=O)NCCNC(=O)c2csc(-c3c(-c4ccc(F)cc4)n[nH]c3C3CCNCC3)n2)cc1 [Example 2157]	> 1
CC(C)NC(=O)c1csc(-c2c(-c3ccc(F)cc3)n[nH]c2C2CCN(C(=O)c3c(F)c(F)c(F)c(F)c3F)CC2)n1 [Example 996]	> 1
C#CCN(Cc1ccc(Cl)cc1Cl)C(=O)c1csc(-c2sc(C)nc2-c2ccc(F)cc2)n1 [Example 1941]	> 1
CC(C)NC(=O)c1csc(-c2oc(CNCCOc3ccccc3)nc2-c2ccc(F)cc2)n1 [Example 1123]	> 1
CC(C)NC(=O)c1csc(-c2c(-c3ccc(F)cc3)n[nH]c2C2CCN(C(=O)c3cscn3)CC2)n1 [Example 833]	≤ 1
CC(C)NC(=O)c1csc(-c2oc(CNCc3ccc(C(C)(C)C)cc3)nc2-c2ccc(F)cc2)n1 [Example 1158]	> 1
CC(C)NC(=O)c1csc(-c2c(-c3ccc(F)cc3)noc2CN[C@H](C)c2ccccc2)n1 [Example 1429]	> 1
CC(C)NC(=O)c1csc(-c2oc(CN3CCSC3)nc2-c2ccc(F)cc2)n1 [Example 1196]	> 1
CCc1ccccc1NCc1nc(-c2ccc(F)cc2)c(-c2nc(C(=O)NC(C)C)cs2)o1 [Example 1319]	> 1
Cc1nc(-c2ccc(F)cc2)c(-c2nc(C(=O)NC(C)CO)cs2)s1 (centres unmarked) [Example 1719]	≤ 1
CC(C)NC(=O)c1csc(-c2c(-c3ccc(F)cc3)noc2CNCC2(O)CCCCC2)n1 [Example 1488]	> 1
Cc1nc(-c2ccc(F)cc2)c(-c2nc(C(=O)N3CCN(C(=O)OC(C)(C)C)CC3)cs2)s1 [Example 1909]	> 1
Cc1nc(-c2ccc(F)cc2)c(-c2nc(C(=O)N3CCCC(C(N)=O)C3)cs2)s1 (centres unmarked) [Example 1872]	> 1
Cc1nc(-c2ccc(F)cc2)c(-c2nc(C(=O)NCc3ccco3)cs2)s1 [Example 1731]	≤ 1
COc1ccc(NC(=O)c2csc(-c3sc(C)nc3-c3ccc(F)cc3)n2)cc1OC [Example 2003]	> 1
Cc1ccc(C(=O)N2CCC(c3[nH]nc(-c4ccc(F)cc4)c3-c3nc(C(=O)NC(C)C)cs3)CC2)cc1Br [Example 1007]	> 1
CCOC(=O)C1CCCN(Cc2onc(-c3ccc(F)cc3)c2-c2nc(C(=O)NC(C)C)cs2)C1 (centres unmarked) [Example 1563]	> 1
CCc1ccc(C(=O)N2CCC(c3[nH]nc(-c4ccc(F)cc4)c3-c3nc(C(=O)NC(C)C)cs3)CC2)cc1 [Example 854]	> 1
CCOC(=O)C1CCCN(Cc2nc(-c3ccc(F)cc3)c(-c3nc(C(=O)NC(C)C)cs3)o2)C1 (centres unmarked) [Example 1238]	> 1
CCN(CCO)C(=O)c1csc(-c2sc(C)nc2-c2ccc(F)cc2)n1 [Example 1845]	> 1
CC(C)NC(=O)c1csc(-c2oc(CNCc3ccc(F)c(Cl)c3)nc2-c2ccc(F)cc2)n1 [Example 1154]	> 1
